Data taken from US8071612B2, “6-alkenyl and 6-phenylalkyl substituted 2-quinolinones and 2-quinoxalinones as poly(ADP-ribose) polymerase inhibitors” (Janssen Pharmaceutica, NV, priority 2004, dated 2011).

Assays:
[1] = target: T1, PARP-1 enzyme (Homo sapiens, UniProt P09874); test: In vitro filtration assay for PARP-1 inhibitory activity; format: biochemical; details: nicked DNA activated PARP-1, [32P]-NAD, histones; read-out: In vitro filtration assay pIC50 (converted)
T1 construct: made in house
Procedure: Compounds of the present invention were tested in an in vitro filtration assay assessing PARP-1 activity (triggered in the presence of nicked DNA) by means of its histone poly (ADP-ribosyl)ation activity using [^32P]-NAD as ADP-ribosyl donor. The radioactive ribosylated histones were precipitated by trichloroacetic acid (TCA) in 96-well filterplates and the incorporated [^32P] measured using a scintillation counter
A mixture of histones (stock solution: 5 mg/ml in H2O), NAD (stock solution: 100 mM in H2O), and [^32P]-NAD^+ in incubation buffer (50 mM Tris/HCl, pH 8; 0.2 mM DTT; 4 mM MgCl2) was made. A mixture of the PARP-1 enzyme (5-10 μg/ml) and nicked DNA was also made. The nicked DNA was prepared as described in the in vitro SPA for PARP-1 inhibitory activity. Seventy-five μl of the PARP-1 enzyme/DNA mixture together with 1 μl of compound in DMSO and 25 μl of histones-NAD^+/[^32P]-NAD^+ mixture was added per well of a 96-well filterplate (0.45 μm, supplier Millipore). The final concentrations in the incubation mixture were 2 μg/ml for the histones, 0.1 mM for the NAD^+, […] (0.5 μC) for the [^32P]-NAD^+ and 2 μg/ml for the nicked DNA. Plates were incubated for 15 min. at room temperature and the reaction was terminated by the addition of 10 μl ice cold 100% TCA followed by the addition of 10 μl ice-cold BSA solution (1% in H2O). The protein fraction was allowed to precipitate for 10 min. at 4° C. and plates were vacuum filtered. The plates were subsequently washed with, for each well, 1 ml of 10% ice cold TCA, 1 ml of 5% ice cold TCA and 1 ml of 5% TCA at room temperature. Finally 100 μl of scintillation solution (Microscint 40, Packard) was added to each well and the plates were transferred to a TopCountNXT™ (supplier: Packard) for scintillation counting and values were expressed as counts per minute (cpm). For each experiment, controls (containing PARP-1 enzyme and DMSO without compound), a blank incubation (containing DMSO but no PARP-1 enzyme or compound) and samples (containing PARP-1 enzyme and compound dissolved in DMSO) were run in parallel. All compounds tested were dissolved and eventually further diluted in DMSO. In first instance, compounds were tested at a concentration of 10^−5M. […] In each test, the blank value was subtracted from both the control and the sample values. The control sample represented maximal PARP-1 enzyme activity. For each sample, the amount of cpm was expressed as a percentage of the mean cpm value of the controls. When appropriate, IC50-values (concentration of the drug, needed to reduce the PARP-1 enzyme activity to 50% of the control) were computed using linear interpolation between the experimental points just above and below the 50% level. Herein the effects of test compounds are expressed as pIC50 (the negative log value of the IC50-value). As a reference compound, 4-amino-1,8-naphthalimide was included to validate the filtration assay.

[2] = target: T1, PARP-1 enzyme; test: In vitro Scintillation Proximity Assay (SPA) for PARP-1 inhibitory activity; format: biochemical; details: nicked DNA activated PARP-1, [3H]-NAD+, biotinylated histones; read-out: In vitro SPA pIC50 (converted)
Procedure: Compounds of the present invention were tested in an in vitro assay based on SPA technology (proprietary to Amersham Pharmacia Biotech).
In principle, the assay relies upon the well established SPA technology for the detection of poly(ADP-ribosyl)ation of biotinylated target proteins, i.e histones. This ribosylation is induced using nicked DNA activated PARP-1 enzyme and [^3H]-nicotinamide adenine dinucleotide ([^3H]-NAD^+) as ADP-ribosyl donor.
As inducer of PARP-1 enzyme activity, nicked DNA was prepared. For this, 25 mg of DNA (supplier: Sigma) was dissolved in 25 ml DNAse buffer (10 mM Tris-HCl, pH 7.4; 0.5 mg/ml Bovine Serum Albumine (BSA); 5 mM MgCl2.6H2O and 1 mM KCl) to which 50 μl DNAse solution (1 mg/ml in 0.15 M NaCl) was added. After an incubation of 90 min. at 37° C., the reaction was terminated by adding 1.45 g NaCl, followed by a further incubation at 58° C. for 15 min. The reaction mixture was cooled on ice and dialysed at 4° C. for respectively 1.5 and 2 hours against 1.5 l of 0.2 M KCl, and twice against 1.5 l of 0.01 M KCl for 1.5 and 2 h respectively. The mixture was aliquoted and stored at −20° C. Histones (1 mg/ml, type II-A, supplier: Sigma) were biotinylated using the biotinylation kit of Amersham and stored aliquoted at −20° C. A stock solution of 100 mg/ml SPA poly(vinyl toluene) (PVT) beads (supplier: Amersham) was made in PBS. A stock solution of [^3]H-NAD^+ was made by adding 120 μl of [^3H]-NAD^+ (0.1 mCi/ml, supplier: NEN) to 6 ml incubation buffer (50 mM Tris/HCl, pH 8; 0.2 mM DTT; 4 mM MgCl2). A solution of 4 mM NAD^+ (supplier: Roche) was made in incubation buffer (from a 100 mM stock solution in water stored at −20° C.). The PARP-1 enzyme was produced using art known techniques, i.e. cloning and expression of the protein starting from human liver cDNA. Information concerning the used protein sequence of the PARP-1 enzyme including literature references can be found in the Swiss-Prot database under primary accession number P09874. Biotinylated histones and PVT-SPA beads were mixed and pre-incubated for 30 min. at room temperature. PARP-1 enzyme (concentration was lot dependent) was mixed with the nicked DNA and the mixture was pre-incubated for 30 min. at 4° C. Equal parts of this histones/PVT-SPA beads solution and PARP-1 enzyme/DNA solution were mixed and 75 μl of this mixture together with 1 μl of compound in DMSO and 25 μl of [^3H]-NAD^+ was added per well into a 96-well microtiterplate. The final concentrations in the incubation mixture were 2 μg/ml for the biotinylated histones, 2 mg/ml for the PVT-SPA beads, 2 μg/ml for the nicked DNA and between 5-10 μg/ml for the PARP-1 enzyme. After incubation of the mixture for 15 min. at room temperature, the reaction was terminated by adding 100 μl of 4 mM NAD^+ in incubation buffer (final concentration 2 mM) and plates were mixed.
The beads were allowed to sediment for at least 15 min. and plates transferred to a TopCountNXT™ (Packard) for scintillation counting, values were expressed as counts per minute (cpm). For each experiment, controls (containing PARP-1 enzyme and DMSO without compound), a blank incubation (containing DMSO but no PARP-1 enzyme or compound) and samples (containing PARP-1 enzyme and compound dissolved in DMSO) were run in parallel. All compounds tested were dissolved and eventually further diluted in DMSO. In first instance, compounds were tested at a concentration of 10^−5 M or 10^−6M. […] In each test, the blank value was subtracted from both the control and the sample values. The control sample represented maximal PARP-1 enzyme activity. For each sample, the amount of cpm was expressed as a percentage of the mean cpm value of the controls. When appropriate, IC50-values (concentration of the drug, needed to reduce the PARP-1 enzyme activity to 50% of the control) were computed using linear interpolation between the experimental points just above and below the 50% level. […]

T1 sequence (P09874 whole entry): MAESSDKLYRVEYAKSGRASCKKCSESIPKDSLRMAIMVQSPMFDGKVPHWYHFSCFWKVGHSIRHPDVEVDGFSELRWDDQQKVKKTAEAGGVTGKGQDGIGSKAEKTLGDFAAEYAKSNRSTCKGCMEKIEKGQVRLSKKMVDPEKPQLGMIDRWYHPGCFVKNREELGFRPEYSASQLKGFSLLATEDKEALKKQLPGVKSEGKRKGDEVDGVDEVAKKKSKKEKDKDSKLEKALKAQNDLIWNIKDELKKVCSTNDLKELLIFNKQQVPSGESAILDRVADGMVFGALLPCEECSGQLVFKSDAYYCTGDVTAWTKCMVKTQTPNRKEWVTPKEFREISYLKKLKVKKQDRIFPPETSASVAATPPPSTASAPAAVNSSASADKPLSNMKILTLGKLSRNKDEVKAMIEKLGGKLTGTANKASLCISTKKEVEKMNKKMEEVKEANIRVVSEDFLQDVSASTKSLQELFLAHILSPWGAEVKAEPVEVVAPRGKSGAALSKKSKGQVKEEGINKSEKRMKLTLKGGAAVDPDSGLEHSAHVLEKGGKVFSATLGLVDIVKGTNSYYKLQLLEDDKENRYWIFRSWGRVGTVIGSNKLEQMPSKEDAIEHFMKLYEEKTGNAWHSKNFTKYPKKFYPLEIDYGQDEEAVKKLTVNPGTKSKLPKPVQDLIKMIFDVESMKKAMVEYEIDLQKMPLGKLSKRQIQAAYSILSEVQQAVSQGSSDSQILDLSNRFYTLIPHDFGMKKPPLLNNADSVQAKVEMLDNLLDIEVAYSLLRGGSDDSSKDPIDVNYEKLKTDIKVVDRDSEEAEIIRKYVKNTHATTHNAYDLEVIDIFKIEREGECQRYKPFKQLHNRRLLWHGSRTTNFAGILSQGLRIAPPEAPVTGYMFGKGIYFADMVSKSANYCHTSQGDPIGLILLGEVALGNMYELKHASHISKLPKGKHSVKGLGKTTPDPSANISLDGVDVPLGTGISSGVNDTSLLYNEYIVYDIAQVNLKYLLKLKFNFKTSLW

Compound	IC50 [1]	IC50 [2]
Cc1cc2cc(C(c3ccccc3)c3cncn3C)ccc2[nH]c1=O (stereo not shown) [Compound 10]	2390 nM	711 nM
CCc1cc2cc(C(NC=O)c3ccccc3)ccc2[nH]c1=O (stereo not shown) [Compound 96]	352 nM	69.8 nM
Cc1cc2cc(C(O)c3ccc4c(c3)OCO4)ccc2[nH]c1=O (stereo not shown) [Compound 111]	4430 nM	611 nM
Cc1cccc(C(NC=O)c2ccc3[nH]c(=O)c(C)cc3c2)c1 (stereo not shown) [Compound 98]	3830 nM	274 nM
CCOC(=O)c1ccc(C(O)c2ccc3[nH]c(=O)c(C)cc3c2)cc1 (stereo not shown) [Compound 109]	2320 nM	755 nM
Cc1cc2cc(C(NC=O)c3ccc4c(c3)OCO4)ccc2[nH]c1=O (stereo not shown) [Compound 99]	1470 nM	289 nM
Cc1cc2cc(/C(=C3\CCCN(C)C3)c3ccccc3)ccc2[nH]c1=O [Compound 134]	1560 nM	299 nM
Cc1cc2cc(C(CCN3CCCCC3)c3ccccc3)ccc2[nH]c1=O (stereo not shown) [Compound 89]	2680 nM	451 nM
CCc1cc2cc(C(c3cccc(C(F)(F)F)c3)N3CCC(=O)CC3)ccc2[nH]c1=O (stereo not shown) [Compound 37]	1170 nM	302 nM
CCc1nc2cc(C(c3ccc(Cl)cc3)n3cnc(C)c3)ccc2[nH]c1=O (stereo not shown) [Compound 122]	2700 nM	877 nM
Cc1cc2cc(C(NC(=O)NCCCN3CCCCC3)c3ccccc3)ccc2[nH]c1=O (stereo not shown) [Compound 7]	7330 nM	1430 nM
Cc1cc2cc(C(NC=O)c3ccccc3)ccc2[nH]c1=O (stereo not shown) [Compound 106]	1680 nM	493 nM
Cc1cc2cc(C(NCCO)c3ccccc3)ccc2[nH]c1=O (stereo not shown) [Compound 29]	4780 nM	796 nM
CCOC(=O)c1ccc(C(NC=O)c2ccc3[nH]c(=O)c(C)cc3c2)cc1 (stereo not shown) [Compound 100]	3510 nM	502 nM
CCc1cc2cc(C(c3cccc(Cl)c3)N3CCC(=O)CC3)ccc2[nH]c1=O (stereo not shown) [Compound 77]	1740 nM	252 nM
Cc1cc2cc(C(NC=O)c3ccc(F)cc3)ccc2[nH]c1=O (stereo not shown) [Compound 102]	1590 nM	366 nM
COc1cccc(C(NC=O)c2ccc3[nH]c(=O)c(C)cc3c2)c1 (stereo not shown) [Compound 101]	2840 nM	773 nM
Cc1cc2cc(C(NCCCn3cccc3)c3ccccc3)ccc2[nH]c1=O (stereo not shown) [Compound 24]	7590 nM	2720 nM
CCc1cc2cc(C(CCN(C)C)c3cccc(C(F)(F)F)c3)ccc2[nH]c1=O (stereo not shown) [Compound 91]	828 nM	187 nM

Compound	IC50 [1]	IC50 [2]
CCc1cc2cc(/C(=C\CN(C)C)c3ccccc3)ccc2[nH]c1=O [Compound 140]	2150 nM	431 nM
Cc1cc2cc(C(NC=O)c3ccc(Cl)cc3)ccc2[nH]c1=O (stereo not shown) [Compound 105]	1470 nM	618 nM
CCc1nc2cc(C(c3cccc(F)c3)n3ccnc3)ccc2[nH]c1=O (stereo not shown) [Compound 115]	3440 nM	818 nM
Cc1cc2cc(/C(=C/CN(C)C)c3cccc4[nH]c(=O)c(C)cc34)ccc2[nH]c1=O [Compound 135]	4180 nM	794 nM
CCc1nc2cc(C(c3ccccc3)n3cncn3)ccc2[nH]c1=O (stereo not shown) [Compound 30]	1800 nM	362 nM
CCc1nc2cc(C(c3ccccc3)n3ccnc3)ccc2[nH]c1=O (stereo not shown) [Compound 127, 3-ethyl-6-(1H-imidazol-1-ylphenylmethyl)-2(1H)-quinoxalinone]	3660 nM	1110 nM
CCc1cc2cc(C(c3cccc(C(F)(F)F)c3)n3cncn3)ccc2[nH]c1=O (stereo not shown) [Compound 78]	2370 nM	197 nM
Cc1cc2cc(C(C)(C#N)c3ccccc3)ccc2[nH]c1=O (stereo not shown) [Compound 85]	1190 nM	189 nM
CCc1cc2cc(C(CCN(C)C)c3ccccc3)ccc2[nH]c1=O (stereo not shown) [Compound 92]	1180 nM	105 nM
CCc1cc2cc(C(c3ccccc3)N3CCC(=O)CC3)ccc2[nH]c1=O (stereo not shown) [Compound 81]	3970 nM	305 nM
CC(=O)NCCNC(c1ccccc1)c1ccc2[nH]c(=O)c(C)cc2c1 (stereo not shown) [Compound 25]	3900 nM	498 nM
CCc1cc2cc(C(NCCCN(C)Cc3ccccc3)c3ccc4c(c3)OCCO4)ccc2[nH]c1=O (stereo not shown) [Compound 57]		33.6 nM
O=c1[nH]c2ccc(C(NCCCN3CCCCC3)c3cccc(C(F)(F)F)c3)cc2c2ccccc12 (stereo not shown) [Compound 32]		74.6 nM
CCc1cc2cc(C(c3ccc4c(c3)OCCO4)N3CCN(CCN4CCCCC4)CC3)ccc2[nH]c1=O (stereo not shown) [Compound 40]		23.7 nM
CCc1cc2cc(C(NCCN3CCC(C(=O)c4ccc(F)cc4)CC3)c3ccc4c(c3)OCCO4)ccc2[nH]c1=O (stereo not shown) [Compound 44]		92.3 nM
CCc1cc2cc(C(OCCN(C)C)c3cccc(Cl)c3)ccc2[nH]c1=O (stereo not shown) [Compound 71]		177 nM
CCc1cc2cc(C(c3ccc(N(C)C)cc3)N3CCC(NCCOC)CC3)ccc2[nH]c1=O (stereo not shown) [Compound 65]		292 nM
CN(CCCNC(c1cccc(C(F)(F)F)c1)c1ccc2[nH]c(=O)c3ccccc3c2c1)Cc1ccccc1 (stereo not shown) [Compound 49]		406 nM
